# Reference: BindingDB's records for doi:10.1016/j.bioorg.2017.05.004 (The Affiliated Hospital of Qingdao University, 2017)
# Biological target: T1, Troponin C, slow skeletal and cardiac muscles [4-85] (Human, UniProt P63316)
# T1 construct: 4-85
# Assay: Fluorescence Polarization Assay
# Conditions: pH 7; 14 °C
# Description: The fluorescence polarization assays were performed at 298 K following a protocol modified from previously reported protocol [Zhuo et al., Mol. Biosyst., 12:2532-2540]. Synthetic peptides were labeled with fluorescein. Titrations were conducted by monitoring polarization as a function of increasing amounts of the proteins of TnC N-terminal domain added to 20 nM fluorescein-peptides in a buffer 50 mM HEPES, pH 7.0, 0.1% Tween 20, 200 mM NaCl and 15 mM DTT.
# T1 sequence (P63316 4-85): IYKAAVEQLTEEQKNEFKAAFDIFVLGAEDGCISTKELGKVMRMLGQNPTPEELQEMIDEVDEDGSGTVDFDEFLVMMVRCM
row,SMILES,Kd [µM]
1,CSCC[C@H](NC(=O)[C@H](C)NC(=O)[C@H](CC(=O)O)NC(=O)[C@H](C)N)C(=O)N[C@@H](CCSC)C(=O)N[C@@H](CCC(N)=O)C(=O)N[C@@H](C)C(=O)N[C@@H](CC(C)C)C(=O)N[C@@H](CC(C)C)C(=O)NCC(=O)N[C@@H](C)C(=O)N[C@@H](CCCNC(=N)N)C(=O)O [ADAMMQALLGAR],15.7
2,CC[C@H](C)[C@H](N)C(=O)N[C@@H](CO)C(=O)N[C@@H](C)C(=O)N[C@@H](CC(=O)O)C(=O)N[C@@H](C)C(=O)N[C@@H](CCSC)C(=O)N[C@@H](CCSC)C(=O)N[C@@H](CCC(N)=O)C(=O)N[C@@H](C)C(=O)N[C@@H](CC(C)C)C(=O)N[C@@H](CC(C)C)C(=O)NCC(=O)N[C@@H](C)C(=O)N[C@@H](CCCNC(=N)N)C(=O)N[C@@H](C)C(=O)N[C@@H](CCCCN)C(=O)N[C@@H](CCC(=O)O)C(=O)N[C@@H](CO)C(=O)O [ISADAMMQALLGARAKES],4.2
